Experiments:
[1] = biological target: T1, FLIPK sensor protein (CFP-LAO-YFP) (Salmonella typhimurium, UniProt P02911); assay: In vitro ligand specificity of FLIPK (FRET ratio with amino acids); format: binding, Salmonella enterica serovar typhimurium LT2; conditions: amino acids at 1 and 10 mM, purified FLIPK
T1 construct: The first 22 amino acids (signal peptides) were removed by the help of a SignalP 4.1 server; (His)6 tag (from pRSET-B) (N); made in house; host or cells: E. coli BL21 (DE3), pRSET-B vector
Experimental: (§1) Specificity of the sensor protein was measured by using five amino acids, arginine, leucine, lysine, ornithine and histidine at three different concentrations i.e. 0, 1.0 and 10 mM, each. FRET measurement was carried out by using a microplate reader. The excitation filter/slit used was 430 nm/20 nm and emission filters/slits for CFP and YFP were 485 nm/20 nm and 535 nm/25 nm, respectively. 180 µl of diluted sensor protein and 20 µl of substrate were taken in different well. Affinity of sensor protein was monitored by using different concentrations of lysine. All analysis was performed in 20 mM PBS buffer (pH 7.5).

[2] = test system: E. coli BL21 (DE3) cells expressing FLIPK; assay: In vivo FRET measurement in FLIPK-expressing bacterial cell suspension; format: cell-based; conditions: for change in FRET ratio of bacterial cell suspension (in vivo specificity): incubation with amino acids for 45 min
Experimental: In vivo analysis was performed by following the earlier protocols. […] Cultures were incubated in Luria Bertoni broth in baffled Erlenmeyer flasks for 48 h in the dark at 20 °C temperature in shaker incubator and then stored at 4 °C for overnight to ensure the proper folding of the fluorescent proteins. Then starved of nitrogen in M9 medium at 37 °C for 2 h and adjusted to OD600 3.5 and kept in 20 mM PBS buffer solution at pH 7.5. Then 180 µl of cells were dispended in the wells of microplate. 20 μl of 10 mM lysine in nitrogen starved medium grown cells were added and the fluorophores emissions were recorded for 45 min. For monitoring the accumulation rates, the injection module of microplate reader was used. Similar procedure was followed with other amino acids (arginine, ornithine, histidine) to see the specificity of FLIPK.

FLIPK-306µ = biological target: T2, FLIPK-306µ (Salmonella enterica, UniProt P02911, R99L); assay: In vitro FRET titration of purified CFP-LAO-YFP sensor with lysine in 20 mM PBS buffer pH 7.5, YFP/CFP (535/485 nm) emission ratio in a microplate reader, fitted to a simple binding isotherm.; conditions: n = 3
T2 construct: gene argT; LAO without first 22 residues (signal peptide), CFP at N-terminus and YFP at C-terminus, N-terminal (His)6 tag, pRSET-B
T2 sequence (P02911 23-260 R99L): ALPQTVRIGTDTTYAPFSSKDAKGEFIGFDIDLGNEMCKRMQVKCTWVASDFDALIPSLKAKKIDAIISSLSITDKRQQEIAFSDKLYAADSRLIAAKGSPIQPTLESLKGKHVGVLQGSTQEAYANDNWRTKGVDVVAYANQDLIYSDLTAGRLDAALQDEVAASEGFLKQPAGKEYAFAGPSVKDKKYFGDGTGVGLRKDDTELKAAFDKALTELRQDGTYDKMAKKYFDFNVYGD
Experimental: as §1
(§2) To determine the Kd of the FLIPK sensors, sensor protein was mixed with different concentrations of lysine in 20 mM PBS buffer (pH 7.5) and YFP/CFP ratio was recorded. By using the ratio change on ligand binding, binding constants (Kd) were determined by fitting ligand titration curve in a simple binding isotherm: S=(r-rapo)/(rsat-rapo)=L/Kd+L , where S is saturation; [L] is ligand concentration; r is ratio; rapo is ratio in the absence of ligand and rsat is ratio at saturation with ligand. All analyses were carried out with three independent protein preparations. FRET was used to characterize the sensor protein with various parameters. The FRET ratio was determined as fluorescence intensity at 535 nm (YFP) divided by fluorescence intensity at 485 nm (CFP).

FLIPK-2 m = biological target: T3, FLIPK-2 m (Salmonella enterica, UniProt P02911, D183I); assay: as above; conditions: n = 3
T3 construct: gene argT; LAO without first 22 residues (signal peptide), CFP at N-terminus and YFP at C-terminus, N-terminal (His)6 tag, pRSET-B
T3 sequence (P02911 23-260 D183I): T2 sequence (P02911 23-260 R99L)
Experimental: as §1, §2

FLIPK-97µ (FLIPK, WT) = biological target: T4, FLIPK-97µ (FLIPK, WT) (Salmonella enterica, UniProt P02911); assay: as above; conditions: n = 3
T4 construct: gene argT; LAO without first 22 residues (signal peptide), CFP at N-terminus and YFP at C-terminus, N-terminal (His)6 tag, pRSET-B
Experimental: as §1, §2

FLIPK-14 µ = biological target: T5, FLIPK-14 µ (Salmonella enterica, UniProt P02911, F74A); assay: as above; conditions: n = 3
T5 construct: gene argT; LAO without first 22 residues (signal peptide), CFP at N-terminus and YFP at C-terminus, N-terminal (His)6 tag, pRSET-B
T5 sequence (P02911 23-260 F74A): T2 sequence (P02911 23-260 R99L)
Experimental: as §1, §2

FLIPK-142µ = biological target: T6, FLIPK-142µ (Salmonella enterica, UniProt P02911, Y36A); assay: as above; conditions: n = 3
T6 construct: gene argT; LAO without first 22 residues (signal peptide), CFP at N-terminus and YFP at C-terminus, N-terminal (His)6 tag, pRSET-B
T6 sequence (P02911 23-260 Y36A): T2 sequence (P02911 23-260 R99L)
Experimental: as §1, §2

FLIPK-30µ = biological target: T7, FLIPK-30µ (Salmonella enterica, UniProt P02911, S94A); assay: as above; conditions: n = 3
T7 construct: gene argT; LAO without first 22 residues (signal peptide), CFP at N-terminus and YFP at C-terminus, N-terminal (His)6 tag, pRSET-B
T7 sequence (P02911 23-260 S94A): T2 sequence (P02911 23-260 R99L)
Experimental: as §1, §2

[3] = test system: S. cerevisiae/URA3 strain BY4742 expressing FLIPK; assay: Confocal FRET imaging of lysine uptake in FLIPK-expressing yeast cells; format: cell-based
Experimental: For expression of FLIPK, S. cerevisiae/URA3 strain BY4742 was used as the eukaryotic host system. The yeast cells were grown and transformed by pYES-DEST-CFP-LAO-YFP vector in which the expression of CFP-LAO-YFP gene was controlled by GAL1 promoter. The transformed yeast cells were grown for 3–5 days in Synthetic Defined (SD)-growth and 1 % galactose as inducer. Imaging of expressed yeast cells were performed on confocal microscope (Leica DMRE) equipped with a confocal head TCS-SPE (Leica, Wetzlar, Germany). The yeast cells were fixed on glass slides by using medical adhesive rinsed with the growth medium and covered by a cover slip. To measure the lysine in yeast cells, dual emission intensity ratio was recorded by using LAS-AF software (Leica, Wetzlar, Germany) with 436 nm/20 nm excitation, two emission filters i.e. 480 nm/40 nm for CFP and 535/30 nm for YFP. For recording the data, FRET sensitized emission tool without background subtraction of the Leica confocal software. The data was further processed by using Adobe Photoshop. Images of single cell and multiple cells were captured by selecting the region of interest (ROI). Similar procedure was followed for the imaging of expressed bacterial cells.

[4] = biological target: lysine binding periplasmic protein (LAO); set-up: method as in PMID 1400387; conditions: read-out: Kd for lysine by equilibrium dialysis; cited from earlier work

N=C(N)NCCC[C@H](N)C(=O)O [arginine]
change in FRET ratio of FLIPK (ligand specificity) [1]: non-significant change in FRET ratio | change in FRET ratio of bacterial cell suspension (in vivo specificity) [2]: did not change the FRET ratio

N[C@@H](Cc1c[nH]cn1)C(=O)O [histidine]
change in FRET ratio of FLIPK (ligand specificity) [1]: non-significant change in FRET ratio | change in FRET ratio of bacterial cell suspension (in vivo specificity) [2]: did not change the FRET ratio

CC(C)C[C@H](N)C(=O)O [leucine]
change in FRET ratio of FLIPK (ligand specificity) [1]: non-significant change in FRET ratio

NCCCC[C@H](N)C(=O)O [lysine, L-lysine]
Kd (FLIPK-306µ): 306 µM | Kd (FLIPK-2 m): 2000 µM | Kd (FLIPK-97µ (FLIPK, WT)): 97 µM | Kd (FLIPK-14 µ): 14 µM | Kd (FLIPK-142µ): 142 µM | Kd (FLIPK-30µ): 30 µM

NCCCC[C@H](N)C(=O)O [lysine]
increase of 535 nm/485 nm emission intensity ratio ([3]; 100 mM extracellular lysine, single yeast cell): 2.0 | time up to which 535 nm/485 nm ratio increased before saturation ([3]; after addition of lysine): 255 s | Kd [4]: 0.015 µM | change in FRET ratio of FLIPK (ligand specificity) [1]: significant increase in the FRET ratio | time after which FRET ratio increased distinctly ([2]; 10 mM lysine added externally): 5 min | time at which FRET ratio of the cell suspensions saturated ([2]; 10 mM lysine added externally, 20 mM PBS buffer): 45 min | time within which uptake of lysine saturated ([2]; at 10 mM): 40 to 45 min | change in FRET ratio of bacterial cell suspension (in vivo specificity) [2]: major change

NCCC[C@H](N)C(=O)O [ornithine]
change in FRET ratio of FLIPK (ligand specificity) [1]: non-significant change in FRET ratio | change in FRET ratio of bacterial cell suspension (in vivo specificity) [2]: did not change the FRET ratio
